# Source: US8853235B2, “Polymorphs and salts of a kinase inhibitor” (Senhwa Biosciences, Inc., priority 2009, dated 2014)
# “And” between values parts separate entries of the source, which are not always exact repeats. Equal entries are not always repeated.
# Experiments:
# Format in all cases: physicochemical
# [1] = Water solubility of compound (I) acid and its salts; conditions: qualitative, acid form vs salts
# [2] = Solubility in organic solvents, sodium salt vs free acid (FIG. 81); conditions: compared with the acid
# [3] = Intrinsic solubility / dissolution rate of salts and polymorphs (FIGS. 82-83); conditions: qualitative; for ease of dissolution: FIGS. 82-83
# [4] = Storage, drying and light stability of sodium salt forms, by XRPD; conditions: for physical change in light study by XRPD: 5 day light studies; for time in which material reverts to Form II: 5 day stability study, 40° C./75% RH; for physical change on storage by XRPD: about 80° C. over about 5 days
# [5] = Gravimetric Vapor Sorption (GVS) of sodium salt polymorphs; conditions: for XRPD analysis of the post-GVS experiment sample: after GVS; for hydroscopicity by GVS: qualitative; for GVS desorption: sample retains water until: mass drops significantly there
# [6] = Short term accelerated stability study of Arginine and TRIS salts; conditions: 40° C./75% RH; for change by XRPD and DSC: 4 week period; for HPLC impurity after storage: after 4 weeks
# Description: Arginine and TRIS salts of compound I prepared as described above were stored at 40° C./75% RH. Each sample was assessed at 0,1 week, 2 weeks and 4 weeks by XRPD, DSC and HPLC assess the stability of each salt.
# [7] = Slurry of Arginine and TRIS salts to determine stability (competitive slurry); conditions: for relative stability of the two forms: competitive slurry, MeOH/H2O (90:10) and EtOH/H2O (90:10); for form after slurry by XRPD: MeOH/H2O (90:10), temperature cycling 40° C. and RT, 4 hour periods, 5 days
# Text: Both Arginine and TRIS salt forms of compound I prepared as described above were slurried in 2˜4 different solvents including aqueous mixes to further determine the stability of the new salt forms. The solids were then dried and analyzed by XRPD and Raman to check for changes in physical and/or chemical form.
# [8] = Micronization of Arginine and TRIS salts, physical form check; conditions: micronized vs pre-micronized
# Text: Both Arginine and TRIS salt forms of compound I prepared as described above were micronized at Pharmaterials in preparation for PK studies. Particle size reduction was done using a Sturtevant Qualification Micronizer® (Sturtevant Inc. Hanover Mass., USA) with dry nitrogen gas as feed and grind gas. To avoid clogging of the venturi and feed nozzle, the polymorph was initially ground using a pestle and motor to break down large particles. Grinding was done at room temperature using the following settings: • Feed air pressure: 80 psi • Grind air pressure: 100 psi
# The micronized polymorph was collected from the exhaust bag and put in a glass vial pending further analysis. The material was then analyzed for particle size distribution based on a method established and applied to each batch. […] The samples were also analyzed by HPLC to determine chemical purity.
# [9] = Determination of particle size distribution (Malvern Mastersizer); conditions: for d50, 3 times / d90, 3 times: single measurements
# Description: Particle size analysis of the pre-milled and post-milled TRIS and arginine salts was carried out using the Malvern Mastersizer, Model Micro Plus. Backgrounds were first measured using the appropriate vehicle solution as diluent (Dimethyl Siloxane). The samples were added drop-wise until a suitable obscuration value was achieved, and particle size distribution measured. A minimum of three analyses were made for each sample.
smiles,measurement,setting,value
"O=C(O)c1ccc2c(c1)nc(Nc1cccc(Cl)c1)c1ccncc12 [Compound I, 5-(3-chlorophenylamino)benzo[c][2,6]naphthyridine-8-carboxylic acid]",water solubility,[1],very low
"O=C(O)c1ccc2c(c1)nc(Nc1cccc(Cl)c1)c1ccncc12 [Form I, 5-(3-chlorophenylamino)benzo[c][2,6]naphthyridine-8-carboxylic acid]",solubility in organic solvents,[2],more soluble in organic solvents than the acid
same,solubility relative to other polymorphs,[3],significantly more soluble than other polymorphs
same,physical form on storage,[4]; dry conditions less than 30° C.,stay amorphous
"O=C(O)c1ccc2c(c1)nc(Nc1cccc(Cl)c1)c1ccncc12 [Form II, 5-(3-chlorophenylamino)benzo[c][2,6]naphthyridine-8-carboxylic acid]",solubility relative to other polymorphs,[3],significantly more soluble than other polymorphs
same,GVS uptake of water,[5]; 20-70% RH,about 12%
same,GVS weight gain,[5]; RH range of about 10% to about 70%,about 8%
same,form conversion in the GVS cycle,"[5]; about 10% to about 90% RH, repeated",No further form conversion was observed
same,XRPD analysis of the post-GVS experiment sample,[5],amorphous content
same,hydroscopicity by GVS,[5],moderate
same,form after drying,[4]; 80° C. for about 24 hours and prolonged drying at 60° C.,converted to amorphous material
"O=C(O)c1ccc2c(c1)nc(Nc1cccc(Cl)c1)c1ccncc12 [Form III, 5-(3-chlorophenylamino)benzo[c][2,6]naphthyridine-8-carboxylic acid]",XRPD analysis of the post-GVS experiment sample,[5],amorphous content
same,GVS desorption: sample retains water until,[5],5%
same,hydroscopicity by GVS,[5],hydroscopic
same,GVS water absorbed on sorption,[5]; sorption,11%
same,physical change in light study by XRPD,[4],no physical change
same,time in which material reverts to Form II,[4],≤ 24 h
same,physical change on storage by XRPD,[4],less crystalline appearance
"O=C(O)c1ccc2c(c1)nc(Nc1cccc(Cl)c1)c1ccncc12 [Form IV, 5-(3-chlorophenylamino)benzo[c][2,6]naphthyridine-8-carboxylic acid]",GVS uptake of water on sorption,[5]; about 20-60% RH,about 1%
same,GVS further rapid uptake,[5]; about 60-70% RH,approximately 8%
same,XRPD analysis of the post-GVS experiment sample,[5],amorphous content
same,GVS desorption: sample retains water until,[5],about 5%
same,physical change in light study by XRPD,[4],no physical change
same,time in which material reverts to Form II,[4],≤ 24 h
same,physical change on storage by XRPD,[4],no physical change
same,form after drying,[4]; drying at 50° C.,converts to another crystalline polymorph
"O=C(O)c1ccc2c(c1)nc(Nc1cccc(Cl)c1)c1ccncc12 [Form VII, 5-(3-chlorophenylamino)benzo[c][2,6]naphthyridine-8-carboxylic acid]",stability by XRPD,"[4]; ambient conditions and 40° C./75% relative humidity, seven days",stable
"O=C(O)c1ccc2c(c1)nc(Nc1cccc(Cl)c1)c1ccncc12 [Form XXI, 5-(3-chlorophenylamino)benzo[c][2,6]naphthyridine-8-carboxylic acid]",ease of dissolution,[3],particularly easily dissolved
same,change by XRPD and DSC,[6],no significant change
same,HPLC impurity after storage,[6],no additional impurity
same,relative stability of the two forms,[7],more stable
same,DSC change after micronization,[8],no significant change
same,XRPD change after micronization,[8],no significant change in crystalline structure
same,"d50, Average",[9]; micronized,4.1 μm
same,"d90, Average",[9]; micronized,8.0 μm
same,"d50, 3 times",[9]; micronized,3.98 μm and 4.04 μm and 4.14 μm
same,"d90, 3 times",[9]; micronized,7.90 μm and 7.94 μm and 8.13 μm
same,"d50, Average",[9]; pre-micronized,21.6 μm
same,"d90, Average",[9]; pre-micronized,71.0 μm
same,"d50, 3 times",[9]; pre-micronized,19.97 μm and 21.13 μm and 23.60 μm
same,"d90, 3 times",[9]; pre-micronized,62.36 μm and 70.79 μm and 79.85 μm
"O=C(O)c1ccc2c(c1)nc(Nc1cccc(Cl)c1)c1ccncc12 [Form XXI-B, 5-(3-chlorophenylamino)benzo[c][2,6]naphthyridine-8-carboxylic acid]",form after slurry by XRPD,[7],complete conversion to Form XXI
"O=C(O)c1ccc2c(c1)nc(Nc1cccc(Cl)c1)c1ccncc12 [Form XXII, 5-(3-chlorophenylamino)benzo[c][2,6]naphthyridine-8-carboxylic acid]",ease of dissolution,[3],particularly easily dissolved
same,change by XRPD and DSC,[6],no significant change
same,HPLC impurity after storage,[6],no additional impurity
same,relative stability of the two forms,[7],more stable
same,DSC change after micronization,[8],no significant change
same,XRPD change after micronization,[8],no significant change in crystalline structure
same,"d50, Average",[9]; micronized,6.0 μm
same,"d90, Average",[9]; micronized,10.5 μm
same,"d50, 3 times",[9]; micronized,6.12 μm and 6.03 μm and 5.99 μm
same,"d90, 3 times",[9]; micronized,10.72 μm and 10.51 μm and 10.41 μm
same,"d50, Average",[9]; pre-micronized,10.0 μm
same,"d90, Average",[9]; pre-micronized,23.4 μm
same,"d50, 3 times",[9]; pre-micronized,9.97 μm and 9.98 μm and 10.06 μm
same,"d90, 3 times",[9]; pre-micronized,23.26 μm and 23.15 μm and 23.68 μm
"O=C(O)c1ccc2c(c1)nc(Nc1cccc(Cl)c1)c1ccncc12 [Form XXII-B, 5-(3-chlorophenylamino)benzo[c][2,6]naphthyridine-8-carboxylic acid]",form after slurry by XRPD,[7],complete conversion to Form XXII
